1 compound from patent US20210228736A1, “PATHOGEN CONTROL COMPOSITIONS AND USES THEREOF” (Flagship Pioneering Innovations VI, LLC, priority 2018, published 2021) can be followed below.

SMILES strings stand for the structures.

In one data set the test system is E. coli. The experiment in a line: Treatment with DOX-loaded grapefruit PMPs, kinetic OD 600 nm (E. coli). Type of data set: cell-based, Escherichia coli. The protocol: (§1) Bacteria and yeast strains were maintained as indicated by the supplier: E. coli (ATCC, #25922) was grown on Trypticase Soy Agar/broth at 37° C., Pseudomonas aeruginosa (ATCC) was grown on Tryptic soy Agar/broth with […] rifampicin at 37° C., and Saccharomyces cerevisiae (ATCC, #9763) was grown on yeast extract peptone dextrose broth (YPD) and maintained at 30° C. Prior to treatment, fresh one day cultures were grown overnight, the OD (600 nm) was adjusted to 0.1 OD with medium prior to use, and bacteria/yeast were transferred to a 96 well plate for treatment (duplicate samples, 100 μl/well). […] Plates were covered with aluminum foil, and incubated at 37° C. (E. coli, P. aeruginosa), or 30° C. (S. cerevisiae) and agitated at 220 rpm.
(§2) A kinetic Absorbance measurement at 600 nm was performed on a SpectraMax® spectrophotometer to monitor the OD of the cultures at t=0h, t=1h, t=2h, t=3h, t=4.5h, t=16h (E. coli, P. aeruginosa) or t=0.5h, t=1.5h, t=2.5h, t=3.5h, t=4h, t=16h (S. cerevisiae). […] To compare the cytotoxic effect of PMP-DOX treatment on different bacterial and yeast strains, within each treatment group the relative OD was determined as compared to the untreated control (set to 100%).

In a further data set the test system is Saccharomyces cerevisiae. The experiment in a line: Treatment with DOX-loaded grapefruit PMPs, kinetic OD 600 nm (S. cerevisiae). In kind it is cell-based. As for the experimental part: as §1, §2
A further data set has as its system Pseudomonas aeruginosa. The experiment in a line: Treatment with DOX-loaded grapefruit PMPs, kinetic OD 600 nm (P. aeruginosa). In kind it is cell-based. As for the experimental part: as §1, §2

Consider `COc1cccc2c1C(=O)c1c(O)c3c(c(O)c1C2=O)C[C@@](O)(C(=O)CO)C[C@@H]3O[C@H]1C[C@H](N)[C@H](O)[C@H](C)O1` [free doxorubicin, doxorubicin], for which the “onset of cytotoxicity compared with PMP-DOX at the same dosages” value with E. coli, with Saccharomyces cerevisiae and with Pseudomonas aeruginosa was “cytotoxicity is induced earlier than with PMP-DOX delivery” each time.
